Test results taken from patent US20160310584A1, “FORMULATIONS FOR NEOPLASIA VACCINES” (THE BROAD INSTITUTE INC., priority 2013, published 2016).

Tests used:
[1] = Peptide diluent matrix (precipitation on dilution of DMSO dissolved peptides); format: physicochemical; conditions: 5 peptides in one vial diluted to 400 μg/mL
Experimental: Additional peptide solubility conditions were tested. Peptides CS6709, CS6712, CS6720, CS6726, and CS6783 were weighed at approximately 10 mg each. The peptides were then dissolved in approximately 200 μL USP grade DMSO to obtain a 50 mg/mL concentration for each peptide. […] The sample appeared to be cloudy. […] The volume of CS6709 added to the single vial was 120 μL. […] Upon addition of the PBS pH 7.4, it was observed that one or more of the peptides had precipitated out. To determine which of the peptides precipitated, Applicants followed the matrix in Table 5 below using very small amounts (10-20 μL) of the DMSO dissolved peptides and adding these peptides to the various liquids.

[2] = Peptide solubility evaluation: dissolution in DMSO, dilution in D5W with or without succinate; format: physicochemical; conditions: DMSO/D5W; Table 4; Y/N; diluted to 2 mg/ml; read-out: Solubility In DMSO/D5W
Experimental: In a representative procedure, peptides were weighed and corrected for % peptide content, and then dissolved in DMSO to a concentration of 50 mg/mL. The DMSO/Peptide solution was then diluted with 5 mM sodium succinate in D5W to a 2 mg/mL peptide concentration.
Additional peptide solubility conditions were tested. Peptides CS6709, CS6712, CS6720, CS6726, and CS6783 were weighed at approximately 10 mg each. The peptides were then dissolved in approximately 200 μL USP grade DMSO to obtain a 50 mg/mL concentration for each peptide. […] Additional 50 μL increments of DMSO were added to Peptide CS6709 up to 400 μL; for a total of 600 μL of DMSO.
Based on gross weight and peptide content, 15 mg (net weight) or slightly more of each individual peptide are weighed and 100% USP Grade DMSO […] is added to achieve a final peptide concentration of 50 mg/ml.

H-LLTDRNTSGTTFTLLGVSDYPELQVPLFLVFLA-OH [CS6783]
Precipitation when PBS pH 7.4 was added as diluent to the peptide mixture [1]: precipitate
solubility [2]: < 2000 µg/mL
